Test results taken from patent US20100178250A1, “Method of Local Delivery of Bioactive and Diagnostic Agents Using Magnetizable Bone Cement” (Philadelphia Health & Education Corporation, priority 2006, published 2010).

What was measured:
Staphlococcus aureus = Staphlococcus aureus bacterial cultures (plate, clear areas); assay type: cell-based; conditions: 150 μL beads or 10 mg tobramycin disc on plate
Experimental: Staphlococcus aureus bacterial cultures were performed in the microbiology department of Hahnemann University Hospital. On each plate 150 μL of control beads, 150 μL, of antibiotic beads and a 10 mg tobramycin disc were placed in order to see any bactericidal activity.

[1] = test system: bacterial strains cultured directly from clinically retrieved gentamicin-loaded bone cement; conditions: cited from earlier work

| Molecule | bactericidal activity (clear areas indicating lack of bacterial growth) (Staphlococcus aureus) | gentamicin resistant strains [1] |
| --- | --- | --- |
| NC[C@H]1O[C@H](O[C@H]2[C@H](O)[C@@H](O[C@H]3O[C@H](CO)[C@@H](O)[C@H](N)[C@H]3O)[C@H](N)C[C@@H]2N)[C@H](N)C[C@@H]1O [tobramycin disc, tobramycin] | clear areas present | – |
| gentamicin | – | 19 of 28 |
